These results are taken from patent US8158628B2, “Sulfonylated 1,2,3,4-tetrahydropyrrolo[1,2-a]pyrazine compounds and their use as pharmaceuticals” (Gruenenthal GmbH, priority 2009, dated 2012).

Broadly, the inhibition is the relative decrease from the control value, in per cent.

The target of one experiment is T1, B1R of the rat (Rattus norvegicus, UniProt P97583).
T1 construct: expressed in transfected cells; host or cells: CHO K1 cells (Chinese hamster ovary), stably transfected
T1 sequence (P97583 1-337): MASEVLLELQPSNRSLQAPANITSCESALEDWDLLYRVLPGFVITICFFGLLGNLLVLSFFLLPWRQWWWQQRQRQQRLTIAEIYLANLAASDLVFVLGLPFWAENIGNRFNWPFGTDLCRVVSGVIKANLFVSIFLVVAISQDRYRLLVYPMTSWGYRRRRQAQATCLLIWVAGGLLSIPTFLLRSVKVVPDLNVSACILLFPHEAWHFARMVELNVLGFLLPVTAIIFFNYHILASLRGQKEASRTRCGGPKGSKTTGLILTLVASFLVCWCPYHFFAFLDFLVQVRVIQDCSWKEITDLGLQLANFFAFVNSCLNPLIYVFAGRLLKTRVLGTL
Put plainly: FLIPR Ca2+ functional assay, B1R antagonism, rat B1R in CHO K1 cells. It is filed as cell-based. To be noted: test substance 10 μM; rB1R CHO K1 cells; agonist Des-Arg9 bradykinin at EC80; % of maximum achievable inhibition. The method, boiled down:
(§1)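 Stably transfected CHO K1 cells loaded with Fluo-4; Ca2+ fluorescence read on FLIPR (ex 488/em 540 nm). Compound preincubated 10-20 min, then agonist at EC80: Lys-Des-Arg9 bradykinin (human) or Des-Arg9 bradykinin (rat). % inhibition vs maximal inhibition; IC50 from concentration series, n=2-3, N>=2.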

The target of another experiment is T2, human B1R (Homo sapiens, UniProt P46663).
T2 construct: expressed in transfected cells; host or cells: CHO K1 cells (Chinese hamster ovary), stably transfected
T2 sequence (P46663 1-353): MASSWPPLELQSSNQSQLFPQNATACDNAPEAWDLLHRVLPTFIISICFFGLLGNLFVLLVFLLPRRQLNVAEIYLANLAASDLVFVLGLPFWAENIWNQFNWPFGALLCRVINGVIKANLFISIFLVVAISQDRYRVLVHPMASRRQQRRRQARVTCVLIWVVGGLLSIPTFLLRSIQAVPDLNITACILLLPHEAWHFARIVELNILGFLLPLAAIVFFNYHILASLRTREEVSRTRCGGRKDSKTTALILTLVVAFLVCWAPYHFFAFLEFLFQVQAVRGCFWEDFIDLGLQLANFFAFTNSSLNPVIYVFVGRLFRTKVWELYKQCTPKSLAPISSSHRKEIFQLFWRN
Briefly: FLIPR Ca2+ functional assay, B1R antagonism, human B1R in CHO K1 cells. It is filed as cell-based. To be noted: test substance 10 μM; hB1R CHO K1 cells; agonist Lys-Des-Arg9 bradykinin at EC80; % of maximum achievable inhibition. The method, boiled down: as §1

As for `Cc1ccc(S(=O)(=O)N2CCn3cccc3C2CC(=O)NC2CCCc3cc(CNCc4ccccc4)ccc32)cc1Cl` (stereo not drawn) [Example 111, N-[6-[(Benzylamino)-methyl]-1,2,3,4-tetrahydro-naphthalen-1-yl]-2-[2-[(3-chloro-4-methyl-phenyl)sulfonyl]-1,2,3,4-tetrahydro-pyrrolo[1,2-a]pyrazin-1-yl]-acetamide], the inhibition at 10 µM stood at 103% on B1R of the rat and 100% at human B1R.
In the same order, the values of `O=C(CC1c2cccn2CCN1S(=O)(=O)c1cccc(C(F)(F)F)c1)NC1CCCc2cc(CNCc3ccccc3)ccc21` (stereo not drawn) [Example 112, N-[6-[(Benzylamino)-methyl]-1,2,3,4-tetrahydro-naphthalen-1-yl]-2-[2-[[3-(trifluoromethyl)phenyl]sulfonyl]-1,2,3,4-tetrahydro-pyrrolo[1,2-a]pyrazin-1-yl]-acetamide] are 102% and 99.8%.
In the same order, the values of `CN(Cc1ccc2c(c1)CCCC2NC(=O)CC1c2cccn2CCN1S(=O)(=O)c1cccc(C(F)(F)F)c1)C(C)(C)C` (stereo not drawn) [Example 113, N-[6-[(tert-Butyl-methyl-amino)-methyl]-1,2,3,4-tetrahydro-naphthalen-1-yl]-2-[2-[[3-(trifluoromethyl)phenyl]sulfonyl]-1,2,3,4-tetrahydro-pyrrolo[1,2-a]pyrazin-1-yl]-acetamide] are 97.1% and 99.8%.
As to `COc1ccc2cc(S(=O)(=O)N3CCn4cccc4C3CC(=O)NC3CCCc4cc(CNC(C)(C)C)ccc43)ccc2c1` (stereo not drawn) [Example 114, N-[6-[(tert-Butylamino)-methyl]-1,2,3,4-tetrahydro-naphthalen-1-yl]-2-[2-[(6-methoxy-naphthalen-2-yl)sulfonyl]-1,2,3,4-tetrahydro-pyrrolo[1,2-a]pyrazin-1-yl]-acetamide], the inhibition at 10 µM at B1R of the rat was found to be 99.6%; at human B1R, 100%.
The matching figures for `Cc1ccc(S(=O)(=O)N2CCn3cccc3C2CC(=O)NC2CCc3cc(CN(C)C)ccc3C2)cc1Cl` (stereo not drawn) [Example 115, 2-[2-[(3-Chloro-4-methyl-phenyl)sulfonyl]-1,2,3,4-tetrahydro-pyrrolo[1,2-a]pyrazin-1-yl]-N-[6-(dimethylaminomethyl)-1,2,3,4-tetrahydro-naphthalen-2-yl]-acetamide]: 102% and 99.8%.
The matching figures for `CN(Cc1ccc2c(c1)CCC(NC(=O)CC1c3cccn3CCN1S(=O)(=O)c1cccc(C(F)(F)F)c1)C2)C(C)(C)C` (stereo not drawn) [Example 116, N-[6-[(tert-Butyl-methyl-amino)-methyl]-1,2,3,4-tetrahydro-naphthalen-2-yl]-2-[2-[[3-(trifluoromethyl)phenyl]sulfonyl]-1,2,3,4-tetrahydro-pyrrolo[1,2-a]pyrazin-1-yl]-acetamide]: 102% and 99.8%.
In the same order, the values of `COc1ccc2cc(S(=O)(=O)N3CCn4cccc4C3CC(=O)NC3CCCc4cc(CN5CCN(C)CC5)ccc43)ccc2c1` (stereo not drawn) [Example 117, 2-[2-[(6-Methoxy-naphthalen-2-yl)sulfonyl]-1,2,3,4-tetrahydro-pyrrolo[1,2-a]pyrazin-1-yl]-N-[6-[(4-methyl-piperazin-1-yl)-methyl]-1,2,3,4-tetrahydro-naphthalen-1-yl]-acetamide] are 98.8% and 100%.
For `COc1ccc2cc(S(=O)(=O)N3CCn4cccc4C3CC(=O)NC3CCc4cc(CN5CCOCC5)ccc4C3)ccc2c1` (stereo not drawn) [Example 118, 2-[2-[(6-Methoxy-naphthalen-2-yl)sulfonyl]-1,2,3,4-tetrahydro-pyrrolo[1,2-a]pyrazin-1-yl]-N-[6-(morpholin-4-yl-methyl)-1,2,3,4-tetrahydro-naphthalen-2-yl]-acetamide], the values for the inhibition at 10 µM at B1R of the rat and on human B1R were 102% and 100%, respectively.
In the same order, the values of `Cc1ccc(S(=O)(=O)N2CCn3cccc3C2CC(=O)NC2CCCc3cc(CN4CCCc5ccccc54)ccc32)cc1Cl` (stereo not drawn) [Example 119, 2-[2-[(3-Chloro-4-methyl-phenyl)sulfonyl]-1,2,3,4-tetrahydro-pyrrolo[1,2-a]pyrazin-1-yl]-N-[6-(1,2,3,4-tetrahydro-quinolin-1-yl-methyl)-1,2,3,4-tetrahydro-naphthalen-1-yl]-acetamide] are 62.2% and 23.4%.
In the same order, the values of `COc1ccc2cc(S(=O)(=O)N3CCn4cccc4C3CC(=O)NC3CCCc4cc(CN5CCOCC5)ccc43)ccc2c1` (stereo not drawn) [Example 120, 2-[2-[(6-Methoxy-naphthalen-2-yl)sulfonyl]-1,2,3,4-tetrahydro-pyrrolo[1,2-a]pyrazin-1-yl]-N-[6-(morpholin-4-yl-methyl)-1,2,3,4-tetrahydro-naphthalen-1-yl]-acetamide] are 102% and 97.8%.
In the same order, the values of `CCC(C)NCc1ccc2c(c1)CCC(NC(=O)CC1c3cccn3CCN1S(=O)(=O)c1ccc3cc(OC)ccc3c1)C2` (stereo not drawn) [Example 121, 2-[2-[(6-Methoxy-naphthalen-2-yl)sulfonyl]-1,2,3,4-tetrahydro-pyrrolo[1,2-a]pyrazin-1-yl]-N-[6-[(1-methyl-propylamino)-methyl]-1,2,3,4-tetrahydro-naphthalen-2-yl]-acetamide] are 99.5% and 99.9%.
As to `Cc1ccc(S(=O)(=O)N2CCn3cccc3C2CC(=O)NC2CCc3cc(CNC(C)(C)C)ccc3C2)cc1` (stereo not drawn) [Example 122, N-[6-[(tert-Butylamino)-methyl]-1,2,3,4-tetrahydro-naphthalen-2-yl]-2-[2-(p-tolylsulfonyl)-1,2,3,4-tetrahydro-pyrrolo[1,2-a]pyrazin-1-yl]-acetamide], the inhibition at 10 µM on B1R of the rat came to 101%; on human B1R, 99.6%.
In the same order, the values of `Cc1ccc(S(=O)(=O)N2CCn3cccc3C2CC(=O)NC2CCc3cc(CN4CCCC4)ccc3C2)cc1` (stereo not drawn) [Example 123, 2-[2-(p-Tolylsulfonyl)-1,2,3,4-tetrahydro-pyrrolo[1,2-a]pyrazin-1-yl]-N-[6-(pyrrolidin-1-yl-methyl)-1,2,3,4-tetrahydro-naphthalen-2-yl]-acetamide] are 101% and 100%.
In the same order, the values of `CN(C)Cc1ccc2c(c1)CCCC2NC(=O)CC1c2cccn2CCN1S(=O)(=O)c1cccc(C(F)(F)F)c1` (stereo not drawn) [Example 124, N-[6-(Dimethylaminomethyl)-1,2,3,4-tetrahydro-naphthalen-1-yl]-2-[2-[[3-(trifluoromethyl)phenyl]sulfonyl]-1,2,3,4-tetrahydro-pyrrolo[1,2-a]pyrazin-1-yl]-acetamide] are 97.3% and 99.7%.
In the same order, the values of `CCC(C)NCc1ccc2c(c1)CCCC2NC(=O)CC1c2cccn2CCN1S(=O)(=O)c1ccc2cc(OC)ccc2c1` (stereo not drawn) [Example 125, 2-[2-[(6-Methoxy-naphthalen-2-yl)sulfonyl]-1,2,3,4-tetrahydro-pyrrolo[1,2-a]pyrazin-1-yl]-N-[6-[(1-methyl-propylamino)-methyl]-1,2,3,4-tetrahydro-naphthalen-1-yl]-acetamide] are 99.1% and 99.6%.
For `CCC(C)NCc1ccc2c(c1)CCCC2NC(=O)CC1c2cccn2CCN1S(=O)(=O)c1ccc(C)cc1` (stereo not drawn) [Example 126, N-[6-[(1-Methyl-propylamino)-methyl]-1,2,3,4-tetrahydro-naphthalen-1-yl]-2-[2-(p-tolylsulfonyl)-1,2,3,4-tetrahydro-pyrrolo[1,2-a]pyrazin-1-yl]-acetamide], the inhibition at 10 µM on B1R of the rat was determined as 102%; at human B1R it was 99.9%.
In the same order, the values of `Cc1ccc(S(=O)(=O)N2CCn3cccc3C2CC(=O)NC2CCCc3cc(CNCc4ccccc4)ccc32)cc1` (stereo not drawn) [Example 127, N-[6-[(Benzylamino)-methyl]-1,2,3,4-tetrahydro-naphthalen-1-yl]-2-[2-(p-tolylsulfonyl)-1,2,3,4-tetrahydro-pyrrolo[1,2-a]pyrazin-1-yl]-acetamide] are 101% and 97.4%.
In the same order, the values of `COc1ccc2cc(S(=O)(=O)N3CCn4cccc4C3CC(=O)NC3CCCc4cc(CN5CCCCC5)ccc43)ccc2c1` (stereo not drawn) [Example 128, 2-[2-[(6-Methoxy-naphthalen-2-yl)sulfonyl]-1,2,3,4-tetrahydro-pyrrolo[1,2-a]pyrazin-1-yl]-N-[6-(piperidin-1-yl-methyl)-1,2,3,4-tetrahydro-naphthalen-1-yl]-acetamide] are 103% and 99.8%.
